Measured values published in US20210353593A1 (Chinook Therapeutics, Inc., priority 2019, published 2021).
Read-outs that look alike come from different tables or passages of the source.

How the values were obtained:
[1] = test system: hallmark gene sets in kidney tissue of g-ddY mice; experiment: Gene Set Enrichment Analysis (GSEA) of hallmark gene sets, g-ddY mouse kidney RNA-seq; format: in vivo
[2] = test system: primary human renal mesangial cells (HRMCs); experiment: ET-1 induced proliferation (BrdU) of primary human renal mesangial cells; format: cell-based; conditions: 10 ng/mL ET-1, read-out: IC50, ET-1 induced HRMC proliferation

CCCCN(CCCC)C(=O)CN1C[C@H](c2ccc3c(c2)OCO3)[C@@H](C(=O)O)[C@@H]1c1ccc(OC)cc1 [Atrasentan, (2R,3R,4S)-4-(1,3-benzodioxol-5-yl)-1-[2-(dibutylamino)-2-oxoethyl]-2-(4-methoxyphenyl)pyrrolidine-3-carboxylic acid]
HALLMARK_KRAS_SIGNALING_DN NES ([1]; 20 mg/kg/day vs. control): 1.32 | HALLMARK_KRAS_SIGNALING_UP NES ([1]; 20 mg/kg/day vs. control): −2.65 | HALLMARK_M ITOTIC_SPINDLE NES ([1]; 20 mg/kg/day vs. control): −1.79 | HALLMARK_MTORC1_SIGNALING NES ([1]; 20 mg/kg/day vs. control): 1.23 | HALLMARK_MYC_TARGETS_V1 NES ([1]; 20 mg/kg/day vs. control): −0.81 | HALLMARK_MYC_TARGETS_V2 NES ([1]; 20 mg/kg/day vs. control): 0.76 | HALLMARK_MYOGENESIS NES ([1]; 20 mg/kg/day vs. control): −1.60 | HALLMARK_NOTCH_SIGNALING NES ([1]; 20 mg/kg/day vs. control): 0.69 | HALLMARK_OXIDATIVE_PHOSPHORYLATION NES ([1]; 20 mg/kg/day vs. control): 3.38 | HALLMARK_P53_PATHWAY NES ([1]; 20 mg/kg/day vs. control): −1.3 | HALLMARK_PANCREAS_BETA_CELLS NES ([1]; 20 mg/kg/day vs. control): 0.98 | HALLMARK_PEROXISOME NES ([1]; 20 mg/kg/day vs. control): 1.88 | HALLMARK_PI3K_AKT_MTOR SIGNALING NES ([1]; 20 mg/kg/day vs. control): −1.24 | HALLMARK_PROTEIN_SECRETION NES ([1]; 20 mg/kg/day vs. control): 1.08 | HALLMARK_REACTIVE_OXYGEN_SPECIES_PATHWAY NES ([1]; 20 mg/kg/day vs. control): 1.61 | HALLMARK_SPERMATOGENESIS NES ([1]; 20 mg/kg/day vs. control): 1.17 | HALLMARK_TGF_BETA_SIGNALING NES ([1]; 20 mg/kg/day vs. control): −1.96 | HALLMARK_TNFA_SIGNALING_VIA_NFKB NES ([1]; 20 mg/kg/day vs. control): −3.06 | HALLMARK_UNFOLDED_PROTEIN_RESPONSE NES ([1]; 20 mg/kg/day vs. control): −0.64 | HALLMARK_UV_RESPONSE_DN NES ([1]; 20 mg/kg/day vs. control): −2.36 | HALLMARK_UV_RESPONSE_UP NES ([1]; 20 mg/kg/day vs. control): 1.15 | HALLMARK_WNT_BETA_CATENIN_SIGNALING NES ([1]; 20 mg/kg/day vs. control): −1.57 | HALLMARK_XENOBIOTIC_METABOLISM NES ([1]; 20 mg/kg/day vs. control): 2.16 | cell proliferation associated signaling (mitotic spindle and G2M checkpoint) ([1]; 30 mg/kg/day): reduced | inflammatory response signaling ([1]; 30 mg/kg/day): reduced | HALLMARK_ADIPOGENESIS NES ([1]; 30 mg/kg/day vs. control): 2.64 | HALLMARK_ALLOGRAFT_REJECTION NES ([1]; 30 mg/kg/day vs. control): −2.12 | HALLMARK_ANDROGEN_RESPONSE NES ([1]; 30 mg/kg/day vs. control): 0.92 | HALLMARK_ANGIOGENESIS NES ([1]; 30 mg/kg/day vs. control): −1.86 | HALLMARK_APICAL_JUNCTION NES ([1]; 30 mg/kg/day vs. control): −2.00 | HALLMARK_APICAL_SURFACE NES ([1]; 30 mg/kg/day vs. control): −1.65 | HALLMARK_APOPTOSIS NES ([1]; 30 mg/kg/day vs. control): −1.52 | HALLMARK_BILE_ACID_METABOLISM NES ([1]; 30 mg/kg/day vs. control): 2.40 | HALLMARK_CHOLESTEROL_HOMEOSTASIS NES ([1]; 30 mg/kg/day vs. control): 1.14 | HALLMARK_COAGULATION NES ([1]; 30 mg/kg/day vs. control): −1.56 | HALLMARK_COMPLEMENT NES ([1]; 30 mg/kg/day vs. control): −1.56 | HALLMARK_DNA_REPAIR NES ([1]; 30 mg/kg/day vs. control): 1.52 | HALLMARK_E2F_TARGETS NES ([1]; 30 mg/kg/day vs. control): −1.46 | HALLMARK_EPITHELIAL_MESENCHYMAL_TRANSITION NES ([1]; 30 mg/kg/day vs. control): −2.60 | HALLMARK_ESTROGEN_RESPONSE_EARLY NES ([1]; 30 mg/kg/day vs. control): −1.22 | HALLMARK_ESTROGEN_RESPONSE_LATE NES ([1]; 30 mg/kg/day vs. control): 1.16 | HALLMARK_FATTY_ACID_METABOLISM NES ([1]; 30 mg/kg/day vs. control): 2.90 | HALLMARK_G2M_CHECKPOINT NES ([1]; 30 mg/kg/day vs. control): −1.92 | HALLMARK_GLYCOLYSIS NES ([1]; 30 mg/kg/day vs. control): 1.96 | HALLMARK_HEDGEHOG_SIGNALING NES ([1]; 30 mg/kg/day vs. control): −1.94 | HALLMARK_HEME_METABOLISM NES ([1]; 30 mg/kg/day vs. control): 1.99 | HALLMARK_HYPOXIA NES ([1]; 30 mg/kg/day vs. control): −1.18 | HALLMARK_IL2_STAT5_SIGNALING NES ([1]; 30 mg/kg/day vs. control): −1.56 | HALLMARK_IL6_JAK_STAT3_SIGNALING NES ([1]; 30 mg/kg/day vs. control): −2.33 | HALLMARK_INFLAMMATORY_RESPONSE NES ([1]; 30 mg/kg/day vs. control): −2.40 | HALLMARK_INTERFERON_ALPHA_RESPONSE NES ([1]; 30 mg/kg/day vs. control): −1.80 | HALLMARK_INTERFERON_GAMMA_RESPONSE NES ([1]; 30 mg/kg/day vs. control): −2.26 | HALLMARK_KRAS_SIGNALING_DN NES ([1]; 30 mg/kg/day vs. control): −1.12 | HALLMARK_KRAS_SIGNALING_UP NES ([1]; 30 mg/kg/day vs. control): −2.31 | HALLMARK_M ITOTIC_SPINDLE NES ([1]; 30 mg/kg/day vs. control): −2.02 | HALLMARK_MTORC1_SIGNALING NES ([1]; 30 mg/kg/day vs. control): 1.81 | HALLMARK_MYC_TARGETS_V1 NES ([1]; 30 mg/kg/day vs. control): 1.26 | HALLMARK_MYC_TARGETS_V2 NES ([1]; 30 mg/kg/day vs. control): 0.92 | HALLMARK_MYOGENESIS NES ([1]; 30 mg/kg/day vs. control): −1.30 | HALLMARK_NOTCH_SIGNALING NES ([1]; 30 mg/kg/day vs. control): −1.15 | HALLMARK_OXIDATIVE_PHOSPHORYLATION NES ([1]; 30 mg/kg/day vs. control): 3.69 | HALLMARK_P53_PATHWAY NES ([1]; 30 mg/kg/day vs. control): 1.10 | HALLMARK_PANCREAS_BETA_CELLS NES ([1]; 30 mg/kg/day vs. control): 1.07 | HALLMARK_PEROXISOME NES ([1]; 30 mg/kg/day vs. control): 2.39 | HALLMARK_PI3K_AKT_MTOR SIGNALING NES ([1]; 30 mg/kg/day vs. control): 0.83 | HALLMARK_PROTEIN_SECRETION NES ([1]; 30 mg/kg/day vs. control): 1.73 | HALLMARK_REACTIVE_OXYGEN_SPECIES_PATHWAY NES ([1]; 30 mg/kg/day vs. control): 1.98 | HALLMARK_SPERMATOGENESIS NES ([1]; 30 mg/kg/day vs. control): 1.21 | HALLMARK_TGF_BETA_SIGNALING NES ([1]; 30 mg/kg/day vs. control): −1.55 | HALLMARK_TNFA_SIGNALING_VIA_NFKB NES ([1]; 30 mg/kg/day vs. control): −2.63 | HALLMARK_UNFOLDED_PROTEIN_RESPONSE NES ([1]; 30 mg/kg/day vs. control): 0.78 | HALLMARK_UV_RESPONSE_DN NES ([1]; 30 mg/kg/day vs. control): −2.39 | HALLMARK_UV_RESPONSE_UP NES ([1]; 30 mg/kg/day vs. control): 1.63 | HALLMARK_WNT_BETA_CATENIN_SIGNALING NES ([1]; 30 mg/kg/day vs. control): −1.63 | HALLMARK_XENOBIOTIC_METABOLISM NES ([1]; 30 mg/kg/day vs. control): 2.38 | IC50 ([2]; 48 hours): 4.2 nM | IC50 ([2]; Homo sapiens, Mesangial cell, 48 h): ~5.1 nM | IC50 ([2]; Homo sapiens, Mesangial cell, 72 h): ~50.8 nM
